{"source": "patent US9295739B2", "about": "“Folate conjugates of albumin-binding entities” (MERCK & CIE, priority 2011, dated 2016)", "key": {"KB tumor xenografts": {"system": "KB tumor xenografts", "assay": "Ex vivo biodistribution of [18F]FDG-AB-folate in nude mice bearing KB tumor xenografts", "conditions": "2 h p.i., n = 3", "experimental": "In vivo experiments were performed in female nude mice bearing KB tumor xenografts.\nAnimals were injected with ˜3 MBq of [^18F]FDG-AB-folate 34 via a lateral tail vein. Animals were sacrificed 2 h after radiotracer injection. Organs- and tissues were dissected and measured in the γ-counter (Wizard, PerkinElmer). The incorporated radioactivity was expressed as percentage injected dose (% ID) per gram of tissue."}, "[1]": {"assay": "log D7.4 by the shake flask method", "type": "physicochemical"}}}
{"smiles": "Nc1nc2ncc(CNc3ccc(C(=O)N[C@@H](CCC(=O)NC(Cc4cn([C@@H]5OC(CO)[C@@H](O)[C@H](O)C5[18F])nn4)C(=O)N[C@@H](CCCCNC(=O)CCCc4ccc(I)cc4)C(=O)O)C(=O)O)cc3)nc2c(=O)[nH]1", "note": "(stereo partly shown) [[^18F]FDG-AB-folate]", "values": [{"measurement": "Blood", "setting": "KB tumor xenografts", "result": "2.93 ± 0.55", "unit": "% ID/g"}, {"measurement": "Bone", "setting": "KB tumor xenografts", "result": "1.50 ± 0.24", "unit": "% ID/g"}, {"measurement": "Brain", "setting": "KB tumor xenografts", "result": "0.89 ± 0.17", "unit": "% ID/g"}, {"measurement": "Feces", "setting": "KB tumor xenografts", "result": "53.02 ± 26.52", "unit": "% ID/g"}, {"measurement": "Gallbladder", "setting": "KB tumor xenografts", "result": "83.78 ± 16.78", "unit": "% ID/g"}, {"measurement": "Heart", "setting": "KB tumor xenografts", "result": "3.20 ± 0.53", "unit": "% ID/g"}, {"measurement": "Intestine", "setting": "KB tumor xenografts", "result": "8.84 ± 7.07", "unit": "% ID/g"}, {"measurement": "Kidneys", "setting": "KB tumor xenografts", "result": "14.98 ± 1.47", "unit": "% ID/g"}, {"measurement": "Liver", "setting": "KB tumor xenografts", "result": "7.14 ± 0.78", "unit": "% ID/g"}, {"measurement": "Lungs", "setting": "KB tumor xenografts", "result": "2.44 ± 0.58", "unit": "% ID/g"}, {"measurement": "Muscle", "setting": "KB tumor xenografts", "result": "1.62 ± 0.26", "unit": "% ID/g"}, {"measurement": "Ratio Tumor/Blood", "setting": "KB tumor xenografts", "result": "3.33 ± 0.59"}, {"measurement": "Ratio Tumor/Kidneys", "setting": "KB tumor xenografts", "result": "0.64 ± 0.07"}, {"measurement": "Ratio Tumor/Liver", "setting": "KB tumor xenografts", "result": "1.34 ± 0.16"}, {"measurement": "Salivary glands", "setting": "KB tumor xenografts", "result": "7.55 ± 0.08", "unit": "% ID/g"}, {"measurement": "Spleen", "setting": "KB tumor xenografts", "result": "0.81 ± 0.03", "unit": "% ID/g"}, {"measurement": "Stomach", "setting": "KB tumor xenografts", "result": "1.93 ± 0.51", "unit": "% ID/g"}, {"measurement": "Tumor", "setting": "KB tumor xenografts", "result": "9.51 ± 0.08", "unit": "% ID/g"}, {"measurement": "log D7.4 value", "setting": "[1]", "result": "−3.2±0.4"}]}
